{"source": "paper PMC5702617", "about": "“Novel peptide probes to assess the tensional state of fibronectin fibers in cancer” (Nature Communications, 2017)", "key": {"relaxed Fn fibers": {"target": "relaxed Fn fibers (Homo sapiens, UniProt P02751)", "sequence (P02751 32-2477)": "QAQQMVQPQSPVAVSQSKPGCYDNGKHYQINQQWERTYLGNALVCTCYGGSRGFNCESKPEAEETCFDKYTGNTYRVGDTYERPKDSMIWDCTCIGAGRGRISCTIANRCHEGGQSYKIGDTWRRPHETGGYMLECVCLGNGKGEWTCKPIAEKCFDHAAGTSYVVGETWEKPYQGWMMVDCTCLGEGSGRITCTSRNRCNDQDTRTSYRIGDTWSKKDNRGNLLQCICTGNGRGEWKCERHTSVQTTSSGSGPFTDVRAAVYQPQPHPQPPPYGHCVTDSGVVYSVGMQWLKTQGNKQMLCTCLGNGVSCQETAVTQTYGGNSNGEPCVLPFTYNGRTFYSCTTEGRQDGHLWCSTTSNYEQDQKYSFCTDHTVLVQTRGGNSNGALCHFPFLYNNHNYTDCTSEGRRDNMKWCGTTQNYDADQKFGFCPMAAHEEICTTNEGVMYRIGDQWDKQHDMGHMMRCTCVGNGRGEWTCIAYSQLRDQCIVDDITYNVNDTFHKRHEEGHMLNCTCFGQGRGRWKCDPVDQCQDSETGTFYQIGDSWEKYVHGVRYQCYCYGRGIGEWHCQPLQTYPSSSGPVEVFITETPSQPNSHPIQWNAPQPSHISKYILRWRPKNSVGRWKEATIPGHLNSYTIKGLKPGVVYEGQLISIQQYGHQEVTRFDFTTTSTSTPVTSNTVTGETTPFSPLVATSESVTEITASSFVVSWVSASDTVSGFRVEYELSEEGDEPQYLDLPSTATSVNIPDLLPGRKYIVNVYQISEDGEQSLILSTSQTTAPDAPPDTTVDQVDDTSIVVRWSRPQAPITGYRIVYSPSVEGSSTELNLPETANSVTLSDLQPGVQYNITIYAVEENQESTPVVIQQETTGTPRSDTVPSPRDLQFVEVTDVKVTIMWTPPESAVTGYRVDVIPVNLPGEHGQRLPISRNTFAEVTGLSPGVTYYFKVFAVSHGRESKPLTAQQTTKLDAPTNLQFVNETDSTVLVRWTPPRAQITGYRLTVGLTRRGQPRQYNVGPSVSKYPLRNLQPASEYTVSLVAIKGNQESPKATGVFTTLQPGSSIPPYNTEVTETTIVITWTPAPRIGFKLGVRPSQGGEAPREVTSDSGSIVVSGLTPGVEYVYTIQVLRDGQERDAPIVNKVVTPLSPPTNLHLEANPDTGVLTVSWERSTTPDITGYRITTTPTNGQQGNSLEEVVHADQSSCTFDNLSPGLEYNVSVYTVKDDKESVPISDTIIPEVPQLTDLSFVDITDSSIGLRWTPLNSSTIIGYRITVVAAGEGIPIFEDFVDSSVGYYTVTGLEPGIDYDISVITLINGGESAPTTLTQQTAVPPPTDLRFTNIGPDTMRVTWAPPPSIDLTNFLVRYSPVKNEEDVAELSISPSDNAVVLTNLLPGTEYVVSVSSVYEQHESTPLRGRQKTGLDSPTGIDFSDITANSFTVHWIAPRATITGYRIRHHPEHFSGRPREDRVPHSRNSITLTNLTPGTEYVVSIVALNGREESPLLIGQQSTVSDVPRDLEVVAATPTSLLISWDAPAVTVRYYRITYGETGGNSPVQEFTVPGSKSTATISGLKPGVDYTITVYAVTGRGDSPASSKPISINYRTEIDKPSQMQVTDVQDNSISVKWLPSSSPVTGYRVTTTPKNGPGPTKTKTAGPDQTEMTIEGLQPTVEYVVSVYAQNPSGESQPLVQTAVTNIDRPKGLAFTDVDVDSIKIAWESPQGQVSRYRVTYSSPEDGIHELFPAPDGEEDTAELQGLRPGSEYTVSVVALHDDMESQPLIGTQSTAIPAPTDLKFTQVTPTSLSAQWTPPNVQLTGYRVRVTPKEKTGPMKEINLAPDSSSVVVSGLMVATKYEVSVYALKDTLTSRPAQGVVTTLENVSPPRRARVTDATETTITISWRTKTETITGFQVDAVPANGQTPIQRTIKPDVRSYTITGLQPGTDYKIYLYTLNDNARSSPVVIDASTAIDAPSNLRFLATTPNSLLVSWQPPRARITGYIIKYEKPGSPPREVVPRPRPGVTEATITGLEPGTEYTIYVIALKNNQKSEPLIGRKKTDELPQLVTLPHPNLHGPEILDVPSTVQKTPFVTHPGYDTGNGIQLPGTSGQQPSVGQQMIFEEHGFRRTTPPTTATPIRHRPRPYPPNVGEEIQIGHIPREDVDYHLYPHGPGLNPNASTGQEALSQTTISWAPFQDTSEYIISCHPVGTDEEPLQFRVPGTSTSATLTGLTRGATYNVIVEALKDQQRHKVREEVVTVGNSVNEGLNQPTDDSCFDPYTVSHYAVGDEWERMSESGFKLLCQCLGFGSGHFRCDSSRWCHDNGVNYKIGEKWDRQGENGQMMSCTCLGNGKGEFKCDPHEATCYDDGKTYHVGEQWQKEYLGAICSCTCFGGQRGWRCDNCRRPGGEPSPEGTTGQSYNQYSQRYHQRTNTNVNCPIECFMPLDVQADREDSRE", "assay": "Single Fn fiber binding assay, relaxed fibers", "details": "relaxed fibers (7% strain), 30 fibers from three independent experiments, Student's t test", "from_the_text": "(§1) Fn fibers were manually pulled from a concentrated droplet of Fn in PBS (95% unlabeled and 5% Cy5-labeled protein) using a sharp pipette tip and deposited onto a flexible silicone sheet (SMI, USA)[41], rinsed and rehydrated in PBS (schematically shown in Fig. 2c). For affinity measurement Fn fibers were deposited onto a pre-stretched sheet and subsequently relaxed to about a strain of 7% as defined earlier. For measurements of the strain-sensitive binding behavior, fibers were either relaxed or stretched (about 380% strain). […]\nSingle Fn fiber samples were imaged with an Olympus FV 1000 confocal microscope (Olympus AG, Switzerland) using a 40× water immersion objective with a numerical aperture of 0.9. […] Samples were excited with a 488 nm laser and acceptor (Alexa-546) and donor (Alexa-488) signal was detected in two PMTs using a 12 nm detection bandwidth for donor (514–526 nm) and acceptor (566–578 nm)[25]. […]\nImages were analyzed using Fiji-ImageJ and Matlab (MathWorks, Switzerland). For the Fn fiber affinity study, the pixel-wise ratio of FnBPA5-Alexa- 488 signal intensity divided by Fn-Cy5 intensity was calculated for each fiber, if intensities were above a cut-off threshold and below saturation. […] Correction factors for donor bleed through and direct activation of the acceptor used for the analysis were experimentally assessed as shown in Supplementary Fig. 5b, c. […]"}, "[1]": {"target": "relaxed and stretched Fn fibers (Homo sapiens, UniProt P02751)", "sequence (P02751 32-2477)": "as above", "assay": "Fn fiber stretch assay, relaxed vs stretched fibers", "type": "binding", "details": "relaxed (7% strain) vs stretched (380% strain) fibers, three independent experiments, p < 0.001", "from_the_text": "as §1\nImages were analyzed using Fiji-ImageJ and Matlab (MathWorks, Switzerland). For the Fn fiber affinity study, the pixel-wise ratio of FnBPA5-Alexa- 488 signal intensity divided by Fn-Cy5 intensity was calculated for each fiber, if intensities were above a cut-off threshold and below saturation. […] Correction factors for donor bleed through and direct activation of the acceptor used for the analysis were experimentally assessed as shown in Supplementary Fig. 5b, c. […] FRET acceptor channel was corrected for donor bleed through which was measured to be ~20% of the acceptor intensity (Supplementary Fig. 5b). Further analysis such as FRET-Fn-FnBPA5/Fn ratio quantifications were carried out in MatLab."}, "[2]": {"target": "fibrillar Fn in human dermal fibroblast ECM (Homo sapiens, UniProt P02751)", "sequence (P02751 32-273 limits assumed)": "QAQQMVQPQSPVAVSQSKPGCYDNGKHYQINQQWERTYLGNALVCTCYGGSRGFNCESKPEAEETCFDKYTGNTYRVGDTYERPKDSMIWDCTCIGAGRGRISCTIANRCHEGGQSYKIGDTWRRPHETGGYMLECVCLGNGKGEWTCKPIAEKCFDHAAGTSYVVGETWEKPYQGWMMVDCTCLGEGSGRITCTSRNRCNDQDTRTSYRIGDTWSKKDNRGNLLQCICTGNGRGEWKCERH", "assay": "Binding to ECM assembled by human dermal fibroblasts", "type": "cell-based", "details": "5 μg ml−1 peptide, 1 h prior to fixation, confocal microscopy", "procedure": "Normal human dermal fibroblasts (PromoCell, Vitaris AG, Switzerland) were cultured in alpha minimum essential medium (α-MEM) with 10% fetal bovine serum from BioWest (Nuaillé, France), and split before reaching confluence. Cells were seeded onto Fn-coated 8-well chambered cover glasses (Nunc^TM Lab-Tek^TM Chambered Coverglass, Thermo Fisher Scientific, Reinach, Switzerland) at a density of 50 × 10^3 cells per cm^2 and allowed to attach to the surface before medium exchange to medium containing 50 μg ml^−1 Fn. Dependent on the experiment, a fraction of only 10% of exogenous Fn was double-labeled for FRET analysis to prevent intermolecular FRET. Cells in Figs. 2h and 3 were cultured for 48 h. […] After fixation with a 4% paraformaldehyde solution in PBS, the samples shown in Fig. 3 were stained using DAPI (Invitrogen^TM, Thermo Fisher Scientific, Switzerland) and were further analyzed by means of confocal microscopy, whereas samples shown in Fig. 2h were blocked by 4% donkey serum (Abcam, Switzerland) for 1 h at room temperature and fibronectin was stained using a rabbit polyclonal anti-fibronectin antibody (1:50 diluted, ab23750, Abcam, Switzerland). Samples shown in Fig. 2h were then incubated for 1 h with a donkey anti-rabbit Alexa-546 secondary antibody (Invitrogen^TM, Thermo Fisher Scientific, Switzerland)."}}, "note": "Residues, ends and D or L forms follow the SMILES beside them. *: point of attachment. X2 = N=c1ccc2c(-c3ccc(C(=O)NCCCCCN4C(=O)CC(*)C4=O)cc3C(=O)O)c3ccc(N)c(S(=O)(=O)O)c3oc-2c1S(=O)(=O)O", "data": [{"smiles": "CC[C@H](C)[C@H](NC(=O)CNC(=O)[C@H](CCCCN)NC(=O)[C@@H](NC(=O)[C@H](CO)NC(=O)[C@H](CCC(=O)O)NC(=O)[C@H](CCC(=O)O)NC(=O)[C@H](CC(=O)O)NC(=O)[C@H](Cc1ccccc1)NC(=O)[C@H](CCC(=O)O)NC(=O)[C@@H](NC(=O)[C@H](CC(C)C)NC(=O)[C@H](CC(N)=O)NC(=O)[C@H](CO)NC(=O)[C@H](CCC(=O)O)NC(=O)[C@@H](NC(=O)[C@@H](NC(=O)[C@@H](NC(=O)[C@H](CCC(N)=O)NC(=O)CNC(=O)CNC(=O)CNC(=O)[C@@H](N)CSC1CC(=O)N(CCCCCNC(=O)c2ccc(-c3c4ccc(=N)c(S(=O)(=O)O)c-4oc4c(S(=O)(=O)O)c(N)ccc34)c(C(=O)O)c2)C1=O)C(C)C)[C@@H](C)O)[C@@H](C)O)C(C)C)[C@@H](C)O)C(=O)N[C@H](C(=O)N[C@H](C(=O)NCC(=O)N[C@@H](C)C(=O)N[C@H](C(=O)N[C@@H](CO)C(=O)N[C@@H](CC(=O)O)C(=O)N[C@@H](Cc1c[nH]cn1)C(=O)N[C@H](C(=O)N[C@H](C(=O)N[C@H](C(=O)N[C@@H](CCC(=O)O)C(=O)N[C@@H](CC(=O)O)C(=O)N[C@H](C(=O)N[C@@H](CCCCN)C(=O)O)[C@@H](C)O)C(C)C)[C@@H](C)O)[C@@H](C)O)C(C)C)[C@@H](C)O)C(C)C", "note": "(stereo partly shown) [FnBPA5-Alexa488] (H-C(X2)GGGQVTTESNLVEFDEESTKGIVTGAVSDHTTVEDTK-OH; N-terminus and C-terminus assumed)", "values": [{"measurement": "binding to single relaxed Fn fibers (words)", "setting": "relaxed Fn fibers", "result": "significant higher binding"}, {"measurement": "binding to single relaxed Fn fibers (words)", "setting": "relaxed Fn fibers; listed as FnBPA5-Alexa-488", "result": "significantly higher binding to Fn fibers than the scrambled control peptide"}, {"measurement": "strain-dependent binding, FnBPA5/Fn ratio", "setting": "[1]", "result": "significantly higher peptide binding of FnBPA5 to relaxed Fn fibers compared to stretched fibers"}, {"measurement": "binding to fibroblast-assembled ECM", "setting": "[2]", "result": "Specific binding to fibrillar Fn"}]}]}
